These results are taken from patent US11377469B2, “CD73 inhibitors” (ORIC Pharmaceuticals, Inc., priority 2017, dated 2022).

Each structure is given as a SMILES string. Where only a bound is given, the exact number is not on record here.

CD73, sequence (P21589 27-574): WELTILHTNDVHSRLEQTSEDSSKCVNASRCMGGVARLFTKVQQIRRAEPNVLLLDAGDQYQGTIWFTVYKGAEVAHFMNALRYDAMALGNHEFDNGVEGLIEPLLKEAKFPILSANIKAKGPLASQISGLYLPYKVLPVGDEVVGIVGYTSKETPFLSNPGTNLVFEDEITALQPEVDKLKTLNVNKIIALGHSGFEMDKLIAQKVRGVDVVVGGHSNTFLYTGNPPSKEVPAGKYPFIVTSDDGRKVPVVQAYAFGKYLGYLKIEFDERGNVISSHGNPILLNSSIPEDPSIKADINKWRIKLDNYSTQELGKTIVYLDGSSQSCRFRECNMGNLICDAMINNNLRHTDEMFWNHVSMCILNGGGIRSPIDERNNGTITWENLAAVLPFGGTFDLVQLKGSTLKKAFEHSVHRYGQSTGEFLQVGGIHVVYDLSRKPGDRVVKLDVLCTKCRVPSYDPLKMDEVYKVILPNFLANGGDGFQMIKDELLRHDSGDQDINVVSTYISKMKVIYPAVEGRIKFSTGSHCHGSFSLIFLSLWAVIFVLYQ

The assay concerns the target CD73 (Homo sapiens (Human), UniProt P21589). Nature of the assay: Biochemical Assay (CD73 inhibition, AMP hydrolysis, Malachite Green readout). To be noted: CD73 0.3208 nM, AMP 15 μM, Tris-HCl pH 7.4, Malachite Green absorbance. The protocol:
Example A1: Biochemical Assay
Assay Reaction Conditions
• Assay Volume: 70 μl • Reaction Volume: 50 μl • CD73: 0.3208 nM • AMP: 15 μM • Assay Buffer: 2 5 mM Tris-HCL, pH 7.4, 0.01% Brij-35, 0.01% BSA, 5 mM MgCl2 Assay Procedure:
Made dose titration of testing compounds in assay buffer, 10 points ½ log titrations in duplicates starting at 100 μM.
Added 25 μl of CD73 to each well for a final concentration of 320 pM.
Incubated at RT for 15 min.
Added 25 μl of AMP to each well for a final concentration of 15 μM.
Incubated at RT for 10 min.
Added 10 μl of Malachite Green Reagent A, incubate at RT for 10 min.
Added 10 μl of Malachite Green Reagent B, incubate at RT for 45 min. […]
The ability of the compounds disclosed herein to inhibit CD73 activity was quantified and the respective IC50 values were determined. Table 1 provides the biochemical IC50 values of compounds disclosed herein.
Consider `O=P(O)(O)COC[C@H]1O[C@@H](n2ccc3c(NC4CCCC4)nc(Cl)nc32)[C@H](O)[C@@H]1O` [Example 137, ((((2R,3S,4R,5R)-5-(2-chloro-4-(cyclopentylamino)-7H-pyrrolo[2,3-d]pyrimidin-7-yl)-3,4-dihydroxytetrahydrofuran-2-yl)methoxy)methyl)phosphonic acid], for which the IC50 is at most 0.5 µM. The compound `CN(c1nc(Cl)nc2c1nnn2[C@@H]1O[C@H](COCP(=O)(O)O)[C@@H](O)[C@H]1O)[C@H]1CCc2ccccc21` [Example 26, ((((2R,3S,4R,5R)-5-(5-chloro-7-(((S)-2,3-dihydro-1H-inden-1-yl)(methyl)amino)-3H-[1,2,3]triazolo[4,5-d]pyrimidin-3-yl)-3,4-dihydroxytetrahydrofuran-2-yl)methoxy)methyl)phosphonic acid] gave an IC50 of 0.5 to 1 µM.

`O=P(O)(O)CS(=O)(=O)C[C@H]1O[C@@H](n2nnc3c(NC4CCC4)nc(Cl)nc32)[C@H](O)[C@@H]1O` [Example 110, (((((2S,3S,4R,5R)-5-(5-chloro-7-(cyclobutylamino)-3H-[1,2,3]triazolo[4,5-d]pyrimidin-3-yl)-3,4-dihydroxytetrahydrofuran-2-yl)methyl)sulfonyl)methyl)phosphonic acid] came in with an IC50 of at most 0.5 µM. As for `O=P(O)(O)COC[C@H]1O[C@@H](n2ncc3c(NC4CCOCC4)nc(Cl)nc32)[C@H](O)[C@@H]1O` [Example 73, ((((2R,3S,4R,5R)-5-(6-chloro-4-((tetrahydro-2H-pyran-4-yl)amino)-1H-pyrazolo[3,4-d]pyrimidin-1-yl)-3,4-dihydroxytetrahydrofuran-2-yl)methoxy)methyl)phosphonic acid], the figure is at most 0.5 µM. As for `COCCN(c1nc(Cl)nc2c1cnn2[C@@H]1O[C@H](CS(=O)(=O)CP(=O)(O)O)[C@@H](O)[C@H]1O)C1CCCC1` [Example 133], the figure is at most 0.5 µM; as for `C[C@H](Nc1nc(Cl)nc2c1cnn2[C@@H]1O[C@H](COCP(=O)(O)O)[C@@H](O)[C@H]1O)C1CC1` [Example 91, ((((2R,3S,4R,5R)-5-(6-chloro-4-(((S)-1-cyclopropylethyl)amino)-1H-pyrazolo[3,4-d]pyrimidin-1-yl)-3,4-dihydroxytetrahydrofuran-2-yl)methoxy)methyl)phosphonic acid], at most 0.5 µM. As for `O=P(O)(O)COC[C@H]1O[C@@H](n2ncc3c(NCc4ccccc4Cl)nc(CO)nc32)[C@H](O)[C@@H]1O` [Example 17, ((((2R,3S,4R,5R)-5-(4-((2-Chlorobenzyl)amino)-6-(hydroxymethyl)-1H-pyrazolo[3,4-d]pyrimidin-1-yl)-3,4-dihydroxytetrahydrofuran-2-yl)methoxy)methyl)phosphonic acid], the figure is at most 0.5 µM; as for `N#Cc1nc(NCc2cccc(Cl)c2)c2cnn([C@@H]3O[C@H](COCP(=O)(O)O)[C@@H](O)[C@H]3O)c2n1` [Example 18, ((((2R,3S,4R,5R)-5-(4-((3-Chlorobenzyl)amino)-6-cyano-1H-pyrazolo[3,4-d]pyrimidin-1-yl)-3,4-dihydroxytetrahydrofuran-2-yl)methoxy)methyl)phosphonic acid], at most 0.5 µM; as for `CC1(C)CCC[C@H]1Nc1nc(Cl)nc2c1cnn2[C@@H]1O[C@H](COCP(=O)(O)O)[C@@H](O)[C@H]1O` [Example 103, ((((2R,3S,4R,5R)-5-(6-chloro-4-(((R)-2,2-dimethylcyclopentyl)amino)-1H-pyrazolo[3,4-d]pyrimidin-1-yl)-3,4-dihydroxytetrahydrofuran-2-yl)methoxy)methyl)phosphonic acid], at most 0.5 µM. Regarding `O=P(O)(O)CS(=O)(=O)C[C@H]1O[C@@H](n2ncc3c(NCc4ccc(F)cc4)nc(Cl)nc32)[C@H](O)[C@@H]1O` [Example 117, (((((2S,3S,4R,5R)-5-(6-chloro-4-((4-fluorobenzyl)amino)-1H-pyrazolo[3,4-d]pyrimidin-1-yl)-3,4-dihydroxytetrahydrofuran-2-yl)methyl)sulfonyl)methyl)phosphonic acid], the IC50 is at most 0.5 µM. Under `CN(C[C@H]1O[C@@H](n2ncc3c(NCc4ccccc4Cl)nc(Cl)nc32)[C@H](O)[C@@H]1O)C(=O)CP(=O)(O)O` [Example 9, (2-((((2R,3S,4R,5R)-5-(6-chloro-4-((2-chlorobenzyl)amino)-1H-pyrazolo[3,4-d]pyrimidin-1-yl)-3,4-dihydroxytetrahydrofuran-2-yl)methyl)(methyl)amino)-2-oxoethyl)phosphonic acid] stands at most 0.5 µM.

`CC(C)CN(C[C@H]1O[C@@H](n2ncc3c(NCc4ccccc4Cl)nc(Cl)nc32)[C@H](O)[C@@H]1O)C(=O)CP(=O)(O)O` [Example 20, (2-((((2R,3S,4R,5R)-5-(6-Chloro-4-((2-chlorobenzyl)amino)-1H-pyrazolo[3,4-d]pyrimidin-1-yl)-3,4-dihydroxytetrahydrofuran-2-yl)methyl)(isobutyl)amino)-2-oxoethyl)phosphonic acid] yielded an IC50 of over 1 µM.

As to `O=P(O)(O)COC[C@H]1O[C@@H](n2ncc3c(NCCC4CC4)nc(Cl)nc32)[C@H](O)[C@@H]1O` [Example 94, ((((2R,3S,4R,5R)-5-(6-chloro-4-((2-cyclopropylethyl)amino)-1H-pyrazolo[3,4-d]pyrimidin-1-yl)-3,4-dihydroxytetrahydrofuran-2-yl)methoxy)methyl)phosphonic acid], the IC50 is at most 0.5 µM. As for `O=P(O)(O)CS(=O)(=O)C[C@H]1O[C@@H](n2ncc3c(N[C@H]4CCc5ccccc54)nc(Cl)nc32)[C@H](O)[C@@H]1O` [Example 123, (((((2S,3S,4R,5R)-5-(6-chloro-4-(((S)-2,3-dihydro-1H-inden-1-yl)amino)-1H-pyrazolo[3,4-d]pyrimidin-1-yl)-3,4-dihydroxytetrahydrofuran-2-yl)methyl)sulfonyl)methyl)phosphonic acid], the figure is at most 0.5 µM; as for `CN(C[C@H]1O[C@@H](n2ncc3c(NC4CCCC4)nc(Cl)nc32)[C@H](O)[C@@H]1O)C(=O)CP(=O)(O)O` [Example 109, (2-((((2R,3S,4R,5R)-5-(6-chloro-4-(cyclopentylamino)-1H-pyrazolo[3,4-d]pyrimidin-1-yl)-3,4-dihydroxytetrahydrofuran-2-yl)methyl)(methyl)amino)-2-oxoethyl)phosphonic acid], at most 0.5 µM; as for `O=P(O)(O)COC[C@H]1O[C@@H](n2ncc3c(Nc4ccccc4)nc(Cl)nc32)[C@H](O)[C@@H]1O` [Example 75, ((((2R,3S,4R,5R)-5-(6-chloro-4-(phenylamino)-1H-pyrazolo[3,4-d]pyrimidin-1-yl)-3,4-dihydroxytetrahydrofuran-2-yl)methoxy)methyl)phosphonic acid], at most 0.5 µM. Take `O=P(O)(O)CS(=O)(=O)C[C@H]1O[C@@H](n2nnc3c(NCc4ccc(F)cc4)nc(Cl)nc32)[C@H](O)[C@@H]1O` [Example 119]: the IC50 is at most 0.5 µM. Turning to `CN(C[C@H]1O[C@@H](n2nnc3c(NC4CCCC4)nc(Cl)nc32)[C@H](O)[C@@H]1O)C(=O)CP(=O)(O)O` [Example 115, (2-((((2R,3S,4R,5R)-5-(5-chloro-7-(cyclopentylamino)-3H-[1,2,3]triazolo[4,5-d]pyrimidin-3-yl)-3,4-dihydroxytetrahydrofuran-2-yl)methyl)(methyl)amino)-2-oxoethyl)phosphonic acid], the IC50 is 0.5 to 1 µM.

The compound `O=P(O)(O)COC[C@H]1O[C@@H](n2ncc3c(NCc4cccc(F)c4)nc(Cl)nc32)[C@H](O)[C@@H]1O` [Example 29, ((((2R,3S,4R,5R)-5-(6-chloro-4-((3-fluorobenzyl)amino)-1H-pyrazolo[3,4-d]pyrimidin-1-yl)-3,4-dihydroxytetrahydrofuran-2-yl)methoxy)methyl)phosphonic acid] showed an IC50 of at most 0.5 µM. As for `CC(C)(O)c1nc(NC2CCCC2)c2cnn([C@@H]3O[C@H](COCP(=O)(O)O)[C@@H](O)[C@H]3O)c2n1` [Example 132, ((((2R,3S,4R,5R)-5-(4-(cyclopentylamino)-6-(2-hydroxypropan-2-yl)-1H-pyrazolo[3,4-d]pyrimidin-1-yl)-3,4-dihydroxytetrahydrofuran-2-yl)methoxy)methyl)phosphonic acid], the figure is over 1 µM; as for `O=C(CP(=O)(O)O)NC[C@H]1O[C@@H](n2ncc3c(NCc4ccccc4Cl)nc(Cl)nc32)[C@H](O)[C@@H]1O` [Example 2, (2-((((2R,3S,4R,5R)-5-(6-Chloro-4-((2-chlorobenzyl)amino)-1H-pyrazolo[3,4-d]pyrimidin-1-yl)-3,4-dihydroxytetrahydrofuran-2-yl)methyl)amino)-2-oxoethyl)phosphonic acid], over 1 µM. Under `O=P(O)(O)CS(=O)(=O)C[C@H]1O[C@@H](n2ncc3c(NCC4CC4)nc(Cl)nc32)[C@H](O)[C@@H]1O` [Example 62] stands at most 0.5 µM; under `Cc1cccc(CNc2nc(Cl)nc3c2cnn3[C@@H]2O[C@H](COCP(=O)(O)O)[C@@H](O)[C@H]2O)c1` [Example 41, ((((2R,3S,4R,5R)-5-(6-chloro-4-((3-methylbenzyl)amino)-1H-pyrazolo[3,4-d]pyrimidin-1-yl)-3,4-dihydroxytetrahydrofuran-2-yl)methoxy)methyl)phosphonic acid], at most 0.5 µM.

`O=P(O)(O)CS(=O)(=O)C[C@H]1O[C@@H](n2nnc3c(NC4Cc5ccccc5C4)nc(Cl)nc32)[C@H](O)[C@@H]1O` [Example 121, (((((2S,3S,4R,5R)-5-(5-chloro-7-((2,3-dihydro-1H-inden-2-yl)amino)-3H-[1,2,3]triazolo[4,5-d]pyrimidin-3-yl)-3,4-dihydroxytetrahydrofuran-2-yl)methyl)sulfonyl)methyl)phosphonic acid] gave an IC50 of at most 0.5 µM.
